Experimental data as given in PMC11367644, “Structural basis for TNIP1 binding to FIP200 during mitophagy” (The Journal of Biological Chemistry, 2024).
Square brackets hold non-standard residues; d marks the D form. Peptide text beside a SMILES is read from it. pS = N[C@@H](COP(=O)(O)O)C(=O)O

Legend:
[1] = target: T1, FIP200 claw domain K1568E (Homo sapiens, UniProt Q8TDY2, K1568E); experiment: ITC with FIP200 claw domain mutant K1568E; details: 20 °C, buffer B pH 7.0, N.D. = no detectable binding
T1 construct: human FIP200 claw domain1490–1594 was cloned; SUMO (N, cleaved yes); made in house; host or cells: Escherichia coli Rosetta (DE3)
Method: (§1) DNA fragment of human FIP200 claw domain1490–1594 was cloned into a modified pET28a (Novagen) plasmid, which contained an N-terminal SUMO-tag and a ULP1 protease cleavage site. All mutants were generated using a MutanBEST Kit (TaKaRa) and confirmed by DNA sequencing. The proteins were expressed in Escherichia coli Rosetta (DE3) cells (Novagen) cultured in LB medium at 37 °C to A600 = 1.0 and then shifted to 16 °C for 24 h after induction with 0.2 mM IPTG. Bacterial pellets were resuspended in buffer A (50 mM NaH2PO4 and 1 M NaCl, pH 7.0) and lysed by sonication. The crude lysate was then centrifuged at 14,000 rpm for 30 min at 4 °C. The supernatant was applied to a Ni-NTA column (QIAGEN), followed by size-exclusion chromatography using a Superdex 200 (GE Healthcare) column. After cleavage with ULP1 protease overnight at 16 °C to remove the SUMO-tag, an additional purification step was performed with a HiTrap SP FF column. The purified protein was concentrated to ∼20 mg/ml in buffer B (50 mM NaH2PO4, 150 mM NaCl, pH 7.0) and stored at −80 °C.
(§2) ITC assays were performed on a Microcal PEAQ-ITC instrument (Malvern) at 20 °C. The concentrations of proteins were determined spectrophotometrically. […] Thermodynamic data were analyzed with a single binding site model using MicroCal PEAQ-ITC Analysis Software provided by the manufacturer (Malvern).

[2] = target: T2, FIP200 claw domain K1569A (Homo sapiens, UniProt Q8TDY2, K1569A); experiment: ITC with FIP200 claw domain mutant K1569A; details: 20 °C, buffer B pH 7.0, N.D. = no detectable binding
T2 construct: human FIP200 claw domain1490–1594 was cloned; SUMO (N, cleaved yes); made in house; host or cells: Escherichia coli Rosetta (DE3)
Method: as §1, §2

T1 sequence (Q8TDY2 1490-1594 K1568E): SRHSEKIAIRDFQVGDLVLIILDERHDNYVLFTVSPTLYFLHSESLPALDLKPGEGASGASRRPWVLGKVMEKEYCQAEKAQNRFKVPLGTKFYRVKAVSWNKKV
T2 sequence (Q8TDY2 1490-1594 K1569A): as the sequence (Q8TDY2 1490-1594 K1568E) above, with E79K, K80A counted along it

CC(C)[C@H](NC(=O)[C@H](CCC(=O)O)NC(=O)[C@H](Cc1ccccc1)NC(=O)[C@H](CCC(=O)O)NC(=O)[C@H](COP(=O)(O)O)NC(=O)[C@H](CO)NC(=O)[C@@H](NC(=O)CNC(=O)[C@H](CO)NC(=O)[C@@H](N)CO)[C@@H](C)O)C(=O)N[C@H](C(=O)N[C@H](C(=O)N1CCC[C@H]1C(=O)N[C@@H](CCC(=O)O)C(=O)N[C@@H](CCC(=O)O)C(=O)N[C@@H](CCC(N)=O)C(=O)O)[C@@H](C)O)C(C)C [TNIP1_pS123^ long] (H-SSGTS[pS]EFEVVTPEEQ-OH)
KD [1]: Weak binding | KD [2]: Weak binding
